From patent publication US20090047246A1, “NOVEL INHIBITORS OF HEPATITIS C VIRUS REPLICATION” (InterMune, Inc., priority 2007, published 2009)
Like-named read-outs stand apart in the source and are kept apart here.

Target: T1, HCV NS3 helicase (Hepatitis C virus genotype 1b, UniProt P26663)
T1 construct: full-length NS3 (1-631), purified at Array BioPharma
Test: HCV Helicase Prompt FRET Assay (Example A)
Assay type: biochemical
Settings: read-out: IC50 Activity
Protocol: Test compounds were diluted to 2.5 mM by adding 6 uL of a 10 mM solution of the compound to 18 uL of DMSO in a 384-well Costar polypropylene plate. Serial dilutions (2.5×) were performed in the plate using DMSO as the diluent. 1 ul of solution was transferred from each well to a new 384-well Costar polypropylene plate.
A 2× mixture was prepared containing 100 nM helicase substrate, 500 nM helicase capture strand (CS), and 600 μM ATP by diluting stock solutions with assay buffer consisting of 25 mM MOPS, pH 7.0, and 1.5 mM MgCl2, 0.005% (v/v) Triton X-100. Stock helicase substrate was prepared by annealing a FAM-labeled oligonucleotide to a BHQ-1 labeled oligonucleotide, which were both custom synthesized and HPLC-purified at Biosearch Technologies. The FAM-labeled and BHQ-labeled oligonucleotide had the following sequences:
The helicase capture strand was custom synthesized and purified at Integrated DNA Technologies. The helicase capture strand had the following sequence:
The ATP solution was prepared in MilliQ water, pH adjusted to approximately 7 with NaOH. ATP powder was obtained from Sigma (A-7699). The concentration was determined via A260 (ext. coeff=15,400 M^−1cm^−1).
11.5 μL of assay buffer was added to all wells of the plate containing luL of test compound. 5 μL of the Compound/assay buffer mixture was added to a black polystyrene 384-well Proxiplate. A 4× Enzyme solution was prepared by diluting enzyme stock containing full-length NS3 (1-631), purified at Array BioPharma, with assay buffer. 5 μL of the 4× Enzyme solution was added to the Proxiplate and incubated for 5 minutes (for control wells lacking enzyme, assay buffer was used instead). 10 μL of 2× substrate/CS/ATP mixture was then added to all wells of Proxiplate. The final assay conditions included 50 nM Substrate, 250 nM Capture Strand, 300 μM ATP, 5 or 6 nM Enzyme, and 2% (v/v) DMSO. The reaction proceeded for 70 cycles (˜30 min.) on an Envision at room temperature. The plate was read using the Envision (top mirror=FITC; Excitation filter=FITC 485; Emission filter=FITC 535). The fluorescence intensity was recorded for a total of 30 minutes. The initial rates of the reactions was calculated and used to calculate IC50 values. The IC50 curve fitting was performed using either a 4-parameter or 5-parameter logistic equation.

[1] = HCV NS3 helicase, tables do not say whether Example A or Example B assay
[2] = Table 31, compounds made using Schemes 38-45
[3] = Table 36, compounds made using Scheme 54
[4] = Table 32, compounds made using Schemes 46-49
[5] = Table 21, compounds made using Scheme 28
[6] = Table 34, compounds made using Schemes 51-52

T1 sequence (P26663 1027-1657): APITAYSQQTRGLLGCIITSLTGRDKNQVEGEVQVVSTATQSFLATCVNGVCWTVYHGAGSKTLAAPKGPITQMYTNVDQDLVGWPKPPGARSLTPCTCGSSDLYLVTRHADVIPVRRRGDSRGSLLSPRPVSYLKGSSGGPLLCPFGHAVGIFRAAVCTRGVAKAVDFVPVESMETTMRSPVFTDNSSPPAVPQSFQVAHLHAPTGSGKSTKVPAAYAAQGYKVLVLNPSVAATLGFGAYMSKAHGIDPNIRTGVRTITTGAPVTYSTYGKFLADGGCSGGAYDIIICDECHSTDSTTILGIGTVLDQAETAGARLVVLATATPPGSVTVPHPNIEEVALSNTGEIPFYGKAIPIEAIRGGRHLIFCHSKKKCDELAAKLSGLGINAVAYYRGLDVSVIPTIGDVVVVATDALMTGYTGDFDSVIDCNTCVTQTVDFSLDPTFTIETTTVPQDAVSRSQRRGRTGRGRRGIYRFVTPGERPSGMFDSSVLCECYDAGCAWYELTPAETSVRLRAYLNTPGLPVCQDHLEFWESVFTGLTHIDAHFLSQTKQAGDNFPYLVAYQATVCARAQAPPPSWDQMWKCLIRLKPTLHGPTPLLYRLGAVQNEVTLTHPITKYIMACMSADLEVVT

SMILES	IC50 [1] [µM]	other results
COc1cccc(CN(C)c2ccc(-n3cc(CC(=O)O)c4ccccc43)cc2)c1 [Example 177]	< 10	
O=C(O)Cc1cn(Cc2cccc(Oc3ccc(Cl)cc3Cl)c2)c2ccccc12 [Example 596]		IC50 (Table 23, compounds made using Scheme 30): < 10 µM
Nc1cc(N)nc(-c2ccc3c(CC(=O)O)cn(Cc4csc5ccc(Cl)cc45)c3c2)n1 [Example 635]		IC50 [2]: 10 to 50 µM
CNc1cc(NC)cc(-c2ccc3c(CC(=O)O)cn(Cc4csc5ccc(Cl)cc45)c3c2)c1 [Example 646]		IC50 [2]: < 10 µM
COc1ccc2c(c1)c(CC(=O)O)cn2Cc1cccc(OCc2ccccc2)c1 [Example 107]	10 to 50	
O=C(O)Cc1cn(Cc2cc(-c3ccccc3)no2)c2ccc(Br)cc12 [Example 138]	10 to 50	
CCOc1ccc2scc(Cn3cc(CC(=O)O)c4ccccc43)c2c1 [Example 142]	10 to 50	
CCN(Cc1ccccc1)c1ccc(-n2nc(CC(=O)O)c3ccccc32)c(C)c1 [Example 175]	10 to 50	
Nc1cc(N)cc(-c2ccc3c(CC(=O)O)cn(Cc4csc5ccc(F)cc45)c3c2)c1 [Example 705]		IC50 (Table 35, compounds made using Scheme 53): < 10 µM
O=C(O)Cc1c(C(=O)c2cccc(-c3ccc(Cl)cc3Cl)c2)[nH]c2ccccc12 [Example 239]	< 10	
O=C(O)Cc1c(C(=O)Cc2ccccc2Br)n(Cc2ccccc2)c2ccccc12 [Example 260]	< 10	
CCN(C)c1cc(Cl)cc2c(Cn3cc(CC(=O)O)c4ccc(-c5cc(N)cc(N)c5)cc43)csc12 [Example 732]		IC50 (Table 38, compounds made using Scheme 56, Scheme 57 and Scheme 61): < 10 µM
N#Cc1ccc2c(CC(=O)O)cn(Cc3csc4ccc(Cl)cc34)c2c1 [Example 789]		IC50 [3]: 10 to 50 µM
O=C(O)Cc1cn(Cc2cccc(Oc3ccc(F)cc3)c2)c2ccc(OCc3ccccc3)cc12 [Example 120]	< 10	
CCOC(=O)Cc1cn(Cc2cccc(N(C)c3ccccc3Cl)c2)c2cc(-c3cccc(O)c3)ccc12 [Compound 624]		IC50 (Table 30, compounds made using Scheme 37): 10 to 50 µM
O=C(O)Cc1cn(Cc2noc(-c3ccccc3)n2)c2ccc(OCc3ccccc3)cc12 [Example 126]	10 to 50	
O=C(O)Cc1cn(Cc2csc3ccc(F)cc23)c2ccc(Br)cc12 [Example 132]	10 to 50	
CN(Cc1cccnc1)c1ccc(-n2cc(CC(=O)O)c3ccccc32)cc1 [Example 180]	10 to 50	
N#Cc1ccc2c(CC(=O)O)cn(Cc3csc4ccc(Cl)cc34)c2c1 [Example 663]		IC50 [4]: 10 to 50 µM
Cc1cc([N+](=O)[O-])ccc1-n1cc(/C=C/C(=O)O)c2cc(/C=C/C(=O)O)cnc21 [Example 323]	> 50	
COC(=O)C(c1ccc([N+](=O)[O-])cc1C)C1CN(c2ccc([N+](=O)[O-])cc2C)c2ccc(Br)cc21 (stereo not drawn) [Example 403]		IC50 (numeric bound instead of class symbol): > 20 µM
CC(C)Nc1cc(NC(C)C)cc(-c2ccc3c(CC(=O)O)cn(Cc4csc5ccc(Cl)cc45)c3c2)c1 [Example 649]		IC50 [2]: < 10 µM
O=C(O)Cc1cn(Cc2cccc(Cl)c2)c2ccc(Br)cc12 [Example 108]	10 to 50	

SMILES	IC50 [1] [µM]	other results
COC(=O)/C=C/c1cn(-c2ccc([N+](=O)[O-])cc2C)c2ncc(OCc3ccccc3)cc12 [Example 328]	> 50	
CN(c1ccc(Cn2cc(CC(=O)O)c3ccccc32)cc1)c1ccc(C(F)(F)F)cc1 [Example 567]		IC50 [5]: < 10 µM
O=C(O)Cc1cn(Cc2csc3ccc(Cl)cc23)c2cc(-c3c[nH]c(=O)[nH]c3=O)ccc12 [Example 662]		IC50 [4]: 10 to 50 µM
Cc1cc([N+](=O)[O-])ccc1-n1cc(CC(=O)O)c2cccnc21 [Example 319]	> 50	
O=C(O)Cc1cn(Cc2cc(F)cc(C(F)(F)F)c2)c2ccc(Br)cc12 [Example 134]	10 to 50	
Cc1cc([N+](=O)[O-])ccc1-n1cc(C(NC(=O)c2ccccc2)C(=O)O)c2ccccc21 (stereo not drawn) [Example 670]		IC50 [6]: 10 to 50 µM
O=C(O)Cc1cn(-c2ccc3c(c2)CCC3=O)c2ccccc12 [Example 148]	10 to 50	
O=C(O)Cc1cn(Cc2csc3ccc(Cl)cc23)c2cc(OCc3ccccc3)ccc12 [Example 340]	< 10	
O=C(O)Cc1cn(-c2ccc(N(CCO)Cc3ccccc3)cc2)c2ccccc12 [Example 168]	10 to 50	
Cc1cc(NC(=O)c2cccs2)ccc1-n1cc(CC(=O)O)c2ccccc21 [Example 158]	10 to 50	
O=C(O)Cc1c(C(=O)c2cccc(-c3ccnc(Cl)c3)c2)[nH]c2ccccc12 [Example 238]	10 to 50	
NC(=O)c1nc(N)sc1-c1ccc2c(CC(=O)O)cn(Cc3csc4ccc(Cl)cc34)c2c1 [Example 655]		IC50 [4]: 10 to 50 µM
Cc1ccc(-c2ccc(C(=O)c3[nH]c4ccccc4c3CC(=O)O)cc2)cc1 [Example 256]	10 to 50	
CC(C)c1ccc(Cn2cc(C(Cc3ccccc3)C(=O)NS(=O)(=O)C3CC3)c3cc(Br)ccc32)cc1 (stereo not drawn) [Example 686]		IC50 [6]: < 10 µM
Nc1cc(N)cc(-c2ccc3c(CC(=O)O)cn(Cc4csc5ccc(OC(F)(F)F)cc45)c3c2)c1 [Example 719]		IC50 [3]: 10 to 50 µM
O=C(O)Cc1cn(Cc2cccc(-c3c[nH]nn3)c2)c2ccc(OCc3ccccc3)cc12 [Example 127]	10 to 50	
O=C(O)Cc1cn(Cc2cccc(-c3cccnc3)c2)c2ccc(OCc3ccccc3)cc12 [Example 130]	10 to 50	
O=C(O)Cc1c(Cc2cccc(-c3ccc(Cl)cc3Cl)c2)oc2ccccc12 [Example 308]	< 10	
O=C(O)Cc1cn(Cc2csc3ccc(Cl)cc23)c2cc(-c3cccc(Cl)c3)ccc12 [Example 754]		IC50 (Table 37, compounds made using Scheme 55): > 50 µM
Nn1cc(-c2ccc3c(CC(=O)O)cn(Cc4csc5ccc(Cl)cc45)c3c2)c(=O)[nH]c1=O [Example 653]		IC50 [2]: 10 to 50 µM
CN(c1ccc(Cn2cc(CC(=O)O)c3ccccc32)cc1)c1cc(Cl)ccc1Cl [Example 574]		IC50 [5]: < 10 µM
NC(=O)c1cccc(-c2ccc(C(=O)c3[nH]c4ccccc4c3CC(=O)O)cc2)c1 [Example 263]	10 to 50	

Further lines, with some results ahead:

IC50 [1] [µM]	SMILES	other results
< 10	COc1ccccc1Oc1ccc(Cn2cc(CC(=O)O)c3ccccc32)cc1 [Example 500]	
10 to 50	CN(c1cccc(Cn2cc(CC(=O)O)c3ccccc32)c1)c1ccc(F)cc1F [Example 534]	
< 10	O=C(O)Cc1cn(Cc2cccc(Oc3cc(Cl)cc(Cl)c3)c2)c2ccccc12 [Example 487]	
< 10	O=C(O)Cc1cn(Cc2ccc(Oc3ccc(C(F)(F)F)cc3)cc2)c2ccccc12 [Example 504]	
< 10	O=C(O)C(Cc1csc2ccc(Cl)cc12)c1cn(Cc2csc3ccc(Cl)cc23)c2cc(-c3ccco3)ccc12 (stereo not drawn) [Example 361]	
< 10	O=C(O)Cc1cn(Cc2ccc(Oc3cc(C(F)(F)F)cc(C(F)(F)F)c3)cc2)c2ccccc12 [Example 512]	
< 10	CN(c1cccc(Cn2cc(CC(=O)O)c3ccccc32)c1)c1cccc(C(F)(F)F)c1 [Example 530]	
< 10	O=C(O)Cc1c(Cc2csc3ccc(Cl)cc23)n(Cc2ccccc2)c2cc(OCc3ccccc3)ccc12 [Example 366]	
< 10	CC(C)c1ccc(Cn2c(C(=O)NCc3cccc(F)c3)c(CC(=O)O)c3ccccc32)cc1 [Example 453]	
10 to 50	CC(C)c1ccc(Cn2c(C(=O)NC3CCNCC3)c(CC(=O)O)c3cc(Br)ccc32)cc1 [Example 438]	
< 10	Cc1cc([N+](=O)[O-])ccc1-n1cc(C(O)(C(=O)O)C(F)(F)F)c2cc(Br)ccc21 (stereo not drawn) [Example 392]	
< 10	CN(c1cccc(Cn2cc(CC(=O)O)c3ccccc32)c1)c1cc(C(F)(F)F)cc(C(F)(F)F)c1 [Example 547]	
10 to 50	Cc1ccc(CNC(=O)c2c(CC(=O)O)c3cc(Br)ccc3n2Cc2ccc(C(C)C)cc2)o1 [Example 444]	
< 10	O=C(O)Cc1cn(Cc2ccc(Oc3cccc(F)c3F)cc2)c2ccccc12 [Example 584]	
< 10	CC(C)c1ccc(Cn2c(C(=O)NCc3ccc(Cl)cc3)c(CC(=O)O)c3ccccc32)cc1 [Example 450]	
< 10	CC(C)c1ccc(Cn2c(C(=O)Nc3cccc(S(C)(=O)=O)c3)c(CC(=O)O)c3ccccc32)cc1 [Example 460]	
< 10	COc1ccc(N(C)c2cccc(Cn3cc(CC(=O)O)c4ccccc43)c2)cc1OC [Example 544]	
< 10	CN(c1cccc(Cn2cc(CC(=O)O)c3ccccc32)c1)c1cccc(Cl)c1Cl [Example 537]	
